From patent US20250186321A1, “FORMULATION USING AMINO ACID AND CARBOXYLIC ACID, ORGANIC SALT, AND COMPOSITION COMPRISING SAME AND USE THEREOF” (MIYOSHI OIL & FAT CO., LTD., priority 2021, published 2025)

Experiment: Appearance of formulation (state at 25° C.)
Type: physicochemical
Description: Formulations 1 to 427 shown in Tables 1A to 1D were prepared by the above-described method using the components (A) and (B) at the compounding molar ratios shown in the tables, and their states at 25° C. were observed.

[1] = Tables 1C-1 to 1D, compounding molar ratio (Component (A):Component (B)) 1:1
[2] = 25° C., components (A) and (B) at the compounding molar ratio shown

Row | Compound | state at 25° C. [1] | state at 25° C. [2]
1 | CCCCCC(=O)O.O=C(O)[C@@H]1CCCN1 [Formulation 343] | Salid | –
2 | NC(CC(=O)O)C(=O)O.O=C(O)CC(O)C(=O)O (centres unmarked) [Formulation 405] | Solid | –
3 | NCCCC[C@H](N)C(=O)O.O=C(O)C(O)C(O)C(=O)O.O=C(O)C(O)C(O)C(=O)O [Formulation 38] | – | Solid
4 | CCCC(=O)O.N[C@@H](Cc1c[nH]c2ccccc12)C(=O)O [Formulation 381] | Solid | –
5 | N[C@@H](CCC(=O)O)C(=O)O.N[C@@H](Cc1c[nH]cn1)C(=O)O [Formulation 97] | – | Solid
6 | CCCCC/C=C\C/C=C\CCCCCCCC(=O)O.C[C@H](N)C(=O)O [Formulation 154] | – | Solid
7 | NCC(=O)O.N[C@@H](CCC(=O)O)C(=O)O [Formulation 139] | – | Solid
8 | CC(O)C(=O)O.CC[C@H](C)[C@H](N)C(=O)O [Formulation 227] | – | Solid
9 | CCCCCC(=O)O.N[C@@H](Cc1c[nH]cn1)C(=O)O [Formulation 88] | – | Solid
10 | CC(C)C[C@H](N)C(=O)O.O=C1O[C@H]([C@@H](O)CO)C(O)=C1O [Formulation 219] | – | Solid
11 | N[C@@H](CCC(=O)O)C(=O)O.O=C(O)CCCCC(=O)O [Formulation 418] | Solid | –
12 | CC(C)[C@H](N)C(=O)O.O=C(O)c1ccccc1 [Formulation 201] | – | Solid
13 | N[C@@H](Cc1c[nH]cn1)C(=O)O.O=CO [Formulation 85] | – | Solid
14 | N[C@@H](CC(=O)O)C(=O)O.N[C@@H](CCC(=O)O)C(=O)O [Formulation 403] | Solid | –
15 | NCCCC[C@H](N)C(=O)O.O=C(O)CCC(=O)O [Formulation 12] | – | Solid
16 | CCCCCC(=O)O.CCCCCC(=O)O.NCCCC[C@H](N)C(=O)O [Formulation 25] | – | Solid
17 | NCCCC(=O)O.O=C1O[C@H]([C@@H](O)CO)C(O)=C1O [Formulation 185] | – | Solid
18 | CC(=O)O.N[C@@H](CCC(=O)O)C(=O)O [Formulation 412] | Solid | –
19 | N[C@@H](Cc1ccccc1)C(=O)O.O=C(O)[C@H](O)[C@@H](O)[C@H](O)[C@H](O)CO [Formulation 365] | Solid | –
20 | O=C(O)[C@@H]1CCCN1.O=CO [Formulation 340] | Solid | –
21 | CC(C)C[C@H](N)C(=O)O.CC(O)C(=O)O [Formulation 210] | – | Solid

Row | Compound | state at 25° C. [1] | state at 25° C. [2]
22 | CCCCCCCC/C=C\CCCCCCCC(=O)O.CCCCCCCC/C=C\CCCCCCCC(=O)O.N[C@@H](Cc1c[nH]cn1)C(=O)O [Formulation 112] | – | Solid
23 | CCCCCC(=O)O.NCC(=O)O [Formulation 130] | – | Solid
24 | N[C@@H](Cc1c[nH]cn1)C(=O)O.O=C(O)/C=C/C(=O)O [Formulation 98] | – | Solid
25 | CC[C@H](C)[C@H](N)C(=O)O.O=C(O)CC(O)(CC(=O)O)C(=O)O [Formulation 233] | – | Solid
26 | CC(O)C(=O)O.C[C@H](N)C(=O)O (centres unmarked) [Formulation 156] | – | Solid
27 | CCC(=O)O.N=C(N)NCCC[C@H](N)C(=O)O [Formulation 45] | – | Solid
28 | C[C@H](N)C(=O)O.O=C(O)C(O)C(O)C(=O)O (centres unmarked) [Formulation 163] | – | Solid
29 | N[C@@H](CCC(=O)O)C(=O)O.O=C(O)CCC(=O)O [Formulation 419] | Solid | –
30 | CSCC[C@H](N)C(=O)O.N[C@@H](CCC(=O)O)C(=O)O [Formulation 332] | Solid | –
31 | N[C@@H](CC(=O)O)C(=O)O.O=CO [Formulation 394] | Solid | –
32 | N[C@@H](Cc1cnc[nH]1)C(=O)O.O=C(O)C[C@H](O)C(=O)O [Formulation 99] | – | Solid
33 | N=C(N)NCCC[C@H](N)C(=O)O.O=C(O)c1ccccc1.O=C(O)c1ccccc1 [Formulation 81] | – | Solid
34 | CCCCCCCC/C=C\CCCCCCCC(=O)O.C[C@H](N)C(=O)O [Formulation 153] | – | Solid
35 | CCCC(=O)O.NCCCC(=O)O [Formulation 171] | – | Solid
36 | CCC(=O)O.CC[C@H](C)[C@H](N)C(=O)O [Formulation 223] | – | Solid
37 | CC(O)C(=O)O.CSCC[C@H](N)C(=O)O [Formulation 329] | Solid | –
38 | N[C@@H](Cc1c[nH]c2ccccc12)C(=O)O.O=C(O)[C@H](O)[C@@H](O)[C@H](O)[C@H](O)CO [Formulation 382] | Solid | –
39 | N[C@@H](Cc1c[nH]c2ccccc12)C(=O)O.O=C(O)C(O)C(O)C(=O)O [Formulation 390] | Solid | –
40 | CC(C)[C@H](N)C(=O)O.CC(O)C(=O)O [Formulation 193] | – | Solid
41 | CC(C)[C@H](N)C(=O)O.O=C(O)CCC(=O)O [Formulation 195] | – | Solid
42 | NCCCC[C@H](N)C(=O)O.O=CO [Formulation 1] | – | Solid

Row | Compound | state at 25° C. [1] | state at 25° C. [2]
43 | CC(=O)O.N[C@@H](Cc1c[nH]c2ccccc12)C(=O)O [Formulation 378] | Solid | –
44 | CCCCC/C=C\C/C=C\CCCCCCCC(=O)O.NCCCC(=O)O [Formulation 174] | – | Solid
45 | NCCCC(=O)O.O=C(O)CCCCC(=O)O [Formulation 177] | – | Solid
46 | N[C@@H](Cc1c[nH]c2ccccc12)C(=O)O.O=CO [Formulation 377] | Solid | –
47 | CCCCC/C=C\C/C=C\CCCCCCCC(=O)O.CCCCC/C=C\C/C=C\CCCCCCCC(=O)O.NCCCC[C@H](N)C(=O)O [Formulation 29] | – | Solid
48 | NCCCC[C@H](N)C(=O)O.O=C(O)C(O)C(O)C(=O)O [Formulation 17] | – | Solid
49 | N=C(N)NCCCC(N)C(=O)O.O=C(O)C=Cc1ccccc1.O=C(O)C=Cc1ccccc1 (centres unmarked) [Formulation 82] | – | Solid
50 | NCC(=O)O.O=C(O)CCC(=O)O [Formulation 138] | – | Solid
51 | CC(C)[C@H](N)C(=O)O.O=C(O)/C=C/C(=O)O [Formulation 197] | – | Solid
52 | CCCCCC(=O)O.CSCC[C@H](N)C(=O)O [Formulation 326] | Solid | –
53 | NCCCC(=O)O.O=C(O)C[C@H](O)C(=O)O [Formulation 181] | – | Solid
54 | CCCCCC(=O)O.NCCCC(=O)O [Formulation 170] | – | Solid
55 | NCCCC[C@H](N)C(=O)O.O=C1O[C@H]([C@H](O)CO)C(O)=C1O [Formulation 21] | – | Liquid
56 | NCCCC[C@H](N)C(=O)O.O=C(O)c1ccccc1 [Formulation 18] | – | Solid
57 | CC[C@H](C)[C@H](N)C(=O)O.N[C@@H](CCC(=O)O)C(=O)O [Formulation 230] | – | Solid
58 | NCCCC[C@H](N)C(=O)O.O=C(O)C[C@H](O)C(=O)O.O=C(O)C[C@H](O)C(=O)O [Formulation 36] | – | Solid
59 | N[C@@H](CC(=O)O)C(=O)O.O=C(O)CCC(=O)O [Formulation 402] | Solid | –
60 | N[C@@H](CS)C(=O)O.O=C(O)CCC(=O)O [Formulation 314] | Solid | –
61 | NCCCC[C@H](N)C(=O)O.N[C@@H](CCC(=O)O)C(=O)O.N[C@@H](CCC(=O)O)C(=O)O [Formulation 34] | Solid | Solid
62 | CC(O)C(=O)O.N[C@@H](Cc1ccccc1)C(=O)O [Formulation 366] | Solid | –
63 | CC[C@H](C)[C@H](N)C(=O)O.O=C(O)[C@H](O)[C@@H](O)[C@H](O)[C@H](O)CO [Formulation 226] | – | Solid

Row | Compound | state at 25° C. [1] | state at 25° C. [2]
64 | N[C@@H](CS)C(=O)O.O=C1O[C@H]([C@H](O)CO)C(O)=C1O [Formulation 322] | Solid | –
65 | CC(C)[C@H](N)C(=O)O.CCCC(=O)O [Formulation 191] | – | Solid
66 | NCCCC[C@H](N)C(=O)O.O=C(O)/C=C/c1ccccc1 [Formulation 19] | – | Solid
67 | C[C@@H](O)[C@H](N)C(=O)O.O=CO [Formulation 255] | – | Solid
68 | CC(O)C(=O)O.N[C@@H](CC(=O)O)C(=O)O [Formulation 400] | Solid | –
69 | CC(C)[C@H](N)C(=O)O.O=C(O)C(O)C(O)C(=O)O (centres unmarked) [Formulation 200] | – | Solid
70 | N=C(N)NCCC[C@H](N)C(=O)O.O=C(O)CCCCC(=O)O.O=C(O)CCCCC(=O)O [Formulation 74] | – | Solid
71 | O=C(O)[C@@H]1CCCN1.O=C(O)c1ccccc1 [Formulation 357] | Solid | –
72 | O=C(O)CCCCC(=O)O.O=C(O)[C@@H]1CCCN1 [Formulation 350] | Solid | –
73 | CC(C)[C@H](N)C(=O)O.O=C(O)[C@H](O)[C@@H](O)[C@H](O)[C@H](O)CO [Formulation 192] | – | Solid
74 | CCCC(=O)O.CCCC(=O)O.N=C(N)NCCC[C@H](N)C(=O)O [Formulation 68] | – | Solid
75 | N[C@@H](Cc1c[nH]c2ccccc12)C(=O)O.O=C1O[C@H]([C@H](O)CO)C(O)=C1O [Formulation 393] | Solid | –
76 | C[C@H](N)C(=O)O.O=C1O[C@H]([C@H](O)CO)C(O)=C1O [Formulation 166] | – | Solid
77 | CC(O)C(=O)O.NCC(=O)O (centres unmarked) [Formulation 136] | – | Solid
78 | CC(C)[C@H](N)C(=O)O.O=CO [Formulation 187] | – | Solid
79 | C[C@H](N)C(=O)O.O=C(O)C(O)C(O)C(O)C(O)CO (centres unmarked) [Formulation 155] | – | Solid
80 | N=C(N)NCCC[C@H](N)C(=O)O.O=C1O[C@H]([C@@H](O)CO)C(O)=C1O.O=C1O[C@H]([C@@H](O)CO)C(O)=C1O [Formulation 83] | – | Solid
81 | CCC(=O)O.N[C@@H](Cc1ccccc1)C(=O)O [Formulation 362] | Solid | –
82 | CCC(=O)O.C[C@@H](O)[C@H](N)C(=O)O [Formulation 257] | – | Solid
